According to US20250042912A1, “NOVEL NON-FLUORINATED QUINOLONE COMPOUND AND USE THEREOF” (priority 2021, published 2025):

Tested on: acne model mice (Propionibacterium acnes ATCC 6919 injected into the left ear)
Assay: Acne model in mice: auricular thickness, redness and swelling of the left ear
Assay type: in vivo, Balb/C mice
Method: Experimental strain: Propionibacterium acnes ATCC 6919 (Beijing Biobw Biotechnology Co., Ltd.) Experimental animals: Balb/C mice (Zhejiang Vital River Laboratory Animal Technology Co., Ltd.) Balb/C mice were grouped and numbered, and adaptively fed for one week. On the day of modeling, Propionibacterium acnes was taken, and OD600 was measured using a microplate reader. BH1 culture medium was diluted to OD600=1 (about 5×10^8 CFU/mL), centrifuged to discard supernatant, and the remaining culture was diluted to 1×10^8 CFU/mL with PBS. Once the molding began, the mice were anesthetized with a small animal anesthesia machine, the air flow and isoflurane content of the anesthesia machine were adjusted, and the mice were placed in an anesthesia induction chamber for anesthesia induction. After there were no obvious signs of activity, the mice were taken out and their toes were clamped with tweezers or hemostatic forceps for toe pinching reaction testing, if there was no retraction pain response, the surgery could be performed. The anesthetized mice were placed on a mice plate and fixed, the air flow or isoflurane content was adjusted to maintain anesthesia (isoflurane anesthesia induction content of 3% to 4%, anesthesia maintenance content of 1% to 2%, and air flow rate of 300 mL/min to 500 mL/min). Blank control group: 20 μL of PBS was intracutaneously injected into the left ear of each mouse. Model group, drug group to be tested: 20 μL suspension of Propionibacterium acnes in PBS was intracutaneously injected into the left ear of each mouse. After the injection of Propionibacterium acnes, the mice in each group were administered according to the methods of administration and dosages described in Table 5 at 4 hours, 20 hours, 28 hours, and 44 hours. […] The drugs to be tested included Compound 6, Compound 7, and Compound 12, all of which were in a form of hydrochloride. In this experiment, Compound 6, Compound 7, and Compound 12 all referred to the corresponding hydrochloride drugs with a solvent of 40% DMSO+60% glycerol, the drugs were added into DMSO, heated to 100° C. in a water bath, and then glycerol was added thereto to obtain a bright yellow viscous solution. Administration area: Propionibacterium acnes was injected into the left ear. Administration time: the drugs were administrated at 4 hours, 20 hours, 28 hours, and 44 hours post-injection of Propionibacterium acnes, a total of 4 times. Balb/C mice were anesthetized with a small animal anesthesia machine and isoflurane in Compound 6 group, Compound 7 group, Compound 12 group, and model group. […] Auricular thickness measurement: after Propionibacterium acnes was injected for 48 hours, the auricular thicknesses of mice were measured with a vernier caliper.

`CN(C)c1cc2c(cn1)-c1ccc3c(=O)c(C(=O)O)cn(C4CC4)c3c1COC2` [Compound 6] was tested, and the “redness and swelling on the left ears of mice” value (Balb/C mice acne model, macroscopic, after treatment, drugs as hydrochloride, in words) was “reduced to varying degrees”, the “Auricular thickness (% of Blank) Mean ± SD” value (Balb/C mice, left ear, 48 hours after injection of Propionibacterium acnes, 15 μL applied at 4, 20, 28, 44 hours, drugs as hydrochloride) was 112.71 ± 17.19 % of Blank and the “Auricular thickness Mean ± SD” value (Balb/C mice, left ear, 48 hours after injection of Propionibacterium acnes, 15 μL applied at 4, 20, 28, 44 hours, drugs as hydrochloride in 40% DMSO+60% glycerol) was 0.51 ± 0.08 mm. For the same molecule, the “auricular thicknesses of the left ears of mice after treatment” value (compared with acne model group, p<0.05, in words) was “significantly reduced”.
